From US12319655B2, “RAF kinase inhibitors and methods of use thereof” (Deciphera Pharmaceuticals, LLC, priority 2021, dated 2025)

How the values were obtained:
A375 cells = assay: A375 Cell Proliferation Assay (1); format: cell-based; details: Homo sapiens, A-375
Summary of the method: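 Resazurin fluorescence (excitation 540 nm, emission 600 nm, after a further 5-6 h) gave IC50s from triplicate compound dilution series.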

[1] = biological target: C-Raf kinase (SEQ. ID NO: 3) (Homo sapiens (Human), UniProt P04049, Y340D/Y341D); assay: Biochemical Assay for C-Raf (1); details: Table J, assay version (1); read-out: CRAF (1) IC50
Chain of C-Raf kinase (SEQ. ID NO: 3) (P04049 307-648 Y340D/Y341D): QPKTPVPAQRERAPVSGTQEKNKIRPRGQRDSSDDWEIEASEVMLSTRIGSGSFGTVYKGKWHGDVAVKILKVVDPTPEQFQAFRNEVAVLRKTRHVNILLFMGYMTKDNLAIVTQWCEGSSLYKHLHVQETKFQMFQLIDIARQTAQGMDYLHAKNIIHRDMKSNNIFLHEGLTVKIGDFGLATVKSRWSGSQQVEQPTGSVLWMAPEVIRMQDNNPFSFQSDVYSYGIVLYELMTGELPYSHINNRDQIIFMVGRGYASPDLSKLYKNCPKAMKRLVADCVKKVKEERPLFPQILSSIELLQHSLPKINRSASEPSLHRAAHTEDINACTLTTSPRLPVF
Summary of the method: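 IC50 values come from a four-parameter fit of percent inhibition, using the reaction rate over 4–5 h of a 6 h continuous 340 nm read at 30 °C. The enzyme mix was C-Raf 0.43 nM, MEK substrate 30.1 nM and ATP 1 mM, in a PK/LDH NADH-coupled format in Tris pH 7.5 with 1% DMSO.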

[2] = biological target: B-Raf (V600E) (SEQ. ID NO: 4) kinase (Homo sapiens (Human), UniProt P15056, V600E); assay: Biochemical Assay for B-Raf (V600E) (1); details: Table J, BRAF V600E, assay version (1); read-out: BRAF VE (1) IC50
Chain of B-Raf (V600E) (SEQ. ID NO: 4) kinase (P15056 416-766 V600E): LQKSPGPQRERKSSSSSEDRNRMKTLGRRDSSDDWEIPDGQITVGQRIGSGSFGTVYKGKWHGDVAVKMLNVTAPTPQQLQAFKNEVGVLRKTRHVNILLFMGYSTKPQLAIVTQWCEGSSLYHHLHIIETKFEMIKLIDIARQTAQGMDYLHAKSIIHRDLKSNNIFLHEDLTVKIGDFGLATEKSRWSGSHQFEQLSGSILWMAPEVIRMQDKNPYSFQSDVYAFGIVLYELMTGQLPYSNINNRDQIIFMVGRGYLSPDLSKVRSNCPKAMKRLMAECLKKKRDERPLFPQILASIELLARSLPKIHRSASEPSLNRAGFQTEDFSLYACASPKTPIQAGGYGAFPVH
Summary of the method: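 Serially diluted compounds tested against 0.03 nM enzyme with 30.1 nM MEK substrate and 1 mM ATP (Tris pH 7.5, 15 mM MgCl2), ATP use coupled to NADH loss via PK/LDH. A340 monitored continuously 6 h, 30 °C; IC50 fitted (four-parameter) from the 3–4 h rate versus no-compound and known-inhibitor controls.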

[3] = biological target: B-Raf kinase (SEQ. ID NO: 2) (Homo sapiens (Human), UniProt P15056); assay: Biochemical Assay for B-Raf (1); details: Table J, assay version (1); read-out: BRAF (1) IC50
Chain of B-Raf kinase (SEQ. ID NO: 2) (P15056 416-766): as the sequence (P15056 416-766 V600E) above, with E185V counted along it
Summary of the method: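 IC50 derived by four-parameter sigmoidal fit of percent inhibition, normalised to uninhibited and reference-inhibitor controls, using reaction rates over 4–5 h. Coupled spectrophotometric readout (NADH loss at 340 nm, 6 h, 30° C.); 1 mM ATP, 30.1 nM MEK, 0.13 nM B-Raf, pH 7.5 Tris buffer, 1% DMSO.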

IC50 (A375 cells) [nM] | IC50 [1] [nM] | IC50 [2] [nM] | IC50 [3] [nM] | SMILES
≤ 100 | 100 to 500 | ≤ 100 | 100 to 500 | Cc1ccc(NC(=O)c2ccnc(C(C)(C)C#N)c2)cc1-c1cc(-c2cc(NC(=O)C3CC3)ncn2)cc(C2CC2)c1 [Example 216]
≤ 100 | ≤ 100 | ≤ 100 | 100 to 500 | Cc1ncc(NC(=O)c2ccnc(C(C)(C)C#N)c2)cc1-c1cc(-c2cc(NC(=O)C3CC3)ncn2)cc(C2CC2)c1 [Example 218]
100 to 500 | 100 to 500 | ≤ 100 | 100 to 500 | Cc1ncc(NC(=O)c2ccnc(C(C)(C)C#N)c2)cc1-c1ccnc(-c2ccnc(NC(=O)C(C)(C)C#N)c2)c1 [Example 219]
1000 to 10000 | 100 to 500 | ≤ 100 | 100 to 500 | Cc1ccc(NC(=O)c2ccnc(C3(C#N)CC3)c2)cc1-c1cccc(-c2cc(NC(=O)C3CC3)ncn2)n1 [Example 220]
1000 to 10000 | ≤ 100 | ≤ 100 | ≤ 100 | COCCNc1cc(-c2nccc(-c3cc(NC(=O)c4ccnc(C(C)(C)C#N)c4)ccc3C)n2)ccn1 [Example 221]
≤ 100 | ≤ 100 | ≤ 100 | ≤ 100 | Cc1ncc(NC(=O)c2ccnc(C(C)(C)C#N)c2)cc1-c1cccc(-c2ccnc(NC(=O)C3CC3)c2)c1 [Example 222]
≤ 100 | ≤ 100 | ≤ 100 | ≤ 100 | Cc1ccc(NC(=O)c2ccnc(C(C)(C)C#N)c2)cc1-c1cccc(-c2ccnc(NC(=O)C3CC3)c2)c1 [Example 223]
≤ 100 | ≤ 100 | ≤ 100 | ≤ 100 | Cc1ccc(NC(=O)c2ccnc(C(C)(C)C#N)c2)cc1-c1cncc(-c2cc(NC(=O)C3CC3)ncn2)c1 [Example 224]
≤ 100 | ≤ 100 | ≤ 100 | ≤ 100 | COC(=O)Nc1cc(-c2cccc(-c3cc(NC(=O)c4ccnc(C(C)(C)C#N)c4)cnc3C)c2)ncn1 [Example 225]
1000 to 10000 | 500 to 1000 | 100 to 500 | 1000 to 10000 | Cc1ncc(NC(=O)c2ccnc(C(C)(C)C#N)c2)cc1-c1cccc(-c2cc(NC(=O)C3CC3)ncn2)n1 [Example 226]
100 to 500 | ≤ 100 | ≤ 100 | ≤ 100 | Cc1ccc(NC(=O)c2ccnc(C3CC3)c2)cc1-c1ccnc(-c2ccnc(NC(=O)C3CC3)c2)n1 [Example 229]
≤ 100 | ≤ 100 | ≤ 100 | ≤ 100 | Cc1ccc(NC(=O)c2ccnc(C(C)(C)C#N)c2)cc1-c1cnnc(-c2ccnc(NC(=O)C3CC3)c2)c1 [Example 230]
≤ 100 | ≤ 100 | ≤ 100 | ≤ 100 | CNC(=O)c1cc(-c2cc(-c3cc(NC(=O)c4cccc(C(C)(C)C#N)c4)ccc3C)cc(OCCO)n2)ccn1 [Example 231]
500 to 1000 | ≤ 100 | ≤ 100 | 100 to 500 | Cc1ccc(NC(=O)c2ccnc(C(C)(C)C#N)c2)cc1-c1cccc(-c2cc(NC(=O)C3CC3)ncn2)n1 [Example 233]
≤ 100 | ≤ 100 | ≤ 100 | 100 to 500 | CNC(=O)c1cc(-c2cncc(-c3cc(NC(=O)c4ccnc(C(C)(C)C#N)c4)ccc3C)c2)ncn1 [Example 235]
1000 to 10000 | 100 to 500 | ≤ 100 | 100 to 500 | COC(C)(C)C(=O)Nc1cc(-c2cc(-c3cc(NC(=O)c4ccnc(C(C)(C)C#N)c4)ccc3C)ccn2)ccn1 [Example 237]
100 to 500 | ≤ 100 | ≤ 100 | 100 to 500 | CC(C)(C#N)c1cc(C(=O)Nc2ccc(C#N)c(-c3cccc(-c4cc(NC(=O)C5CC5)ncn4)c3)c2)ccn1 [Example 240]
≤ 100 | ≤ 100 | ≤ 100 | ≤ 100 | Cc1ccc(NC(=O)c2ccnc(C(C)(C)C#N)c2)cc1-c1ccnc(-c2ccnc(NC(=O)C3(C#N)CC3)c2)n1 [Example 241]
500 to 1000 | 100 to 500 | ≤ 100 | 100 to 500 | CNC(=O)c1cc(-c2ccnc(-c3cc(NC(=O)c4ccnc(C(C)(C)C#N)c4)c(F)cc3C)n2)ccn1 [Example 242]
≤ 100 | ≤ 100 | ≤ 100 | ≤ 100 | Cc1ccc(NC(=O)c2ccnc(C(C)(C)C#N)c2)cc1-c1cc(-c2ccnc(NC(=O)C3CC3)c2)cnn1 [Example 245]

IC50 (A375 cells) [nM] | IC50 [1] [nM] | IC50 [2] [nM] | IC50 [3] [nM] | SMILES
100 to 500 | ≤ 100 | ≤ 100 | 100 to 500 | CNC(=O)c1cc(-c2ccnc(-c3cc(NC(=O)c4ccnc(C(C)(C)F)c4)ccc3C)n2)ccn1 [Example 246]
1000 to 10000 | 100 to 500 | ≤ 100 | 1000 to 10000 | CNC(=O)c1cc(-c2cc(-c3cc(NC(=O)c4ccnc(C(C)(C)C#N)c4)ccc3C#N)ccn2)ccn1 [Example 247]
≤ 100 | ≤ 100 | ≤ 100 | ≤ 100 | Cc1ncc(NC(=O)c2ccnc(C(C)(C)F)c2)cc1-c1cccc(-c2cc(NC(=O)C3CC3)ncn2)c1 [Example 249]
100 to 500 | ≤ 100 | ≤ 100 | ≤ 100 | Cc1ccc(NC(=O)c2cnnc(C3CC3)c2)cc1-c1ccnc(-c2ccnc(NC(=O)C3CC3)c2)n1 [Example 250]
≤ 100 | ≤ 100 | ≤ 100 | ≤ 100 | Cc1ncc(NC(=O)c2ccnc(C(C)(C)C#N)c2)cc1-c1ccnc(-c2ccnc(NC(=O)C3CC3)c2)c1 [Example 251]
1000 to 10000 | ≤ 100 | ≤ 100 | ≤ 100 | Cc1cc(F)c(NC(=O)c2cnnc(C3CC3)c2)cc1-c1nccc(-c2ccnc(NC(=O)C3CC3)c2)n1 [Example 252]
100 to 500 | ≤ 100 | ≤ 100 | ≤ 100 | Cc1ncc(NC(=O)c2ccnc(C3CC3)c2)cc1-c1ccnc(-c2ccnc(NC(=O)C3CC3)c2)c1 [Example 253]
1000 to 10000 | ≤ 100 | ≤ 100 | ≤ 100 | Cc1ncc(NC(=O)c2cnnc(C3CC3)c2)cc1-c1ccnc(-c2ccnc(NC(=O)C3CC3)c2)c1 [Example 254]
≤ 100 | ≤ 100 | ≤ 100 | ≤ 100 | Cc1ccc(NC(=O)c2ccnc(C3CC3)c2)cc1-c1cccc(-c2cc(NC(=O)C3CC3)ncn2)c1 [Example 255]
500 to 1000 | ≤ 100 | ≤ 100 | ≤ 100 | Cc1ncc(NC(=O)c2ccnc(C3CC3)c2)cc1-c1cnc(C)c(-c2ccnc(NC(=O)C3CC3)c2)c1 [Example 256]
≤ 100 | ≤ 100 | ≤ 100 | ≤ 100 | Cc1ccc(NC(=O)c2ccnc(C(C)(C)C#N)c2)cc1-c1ccnc(-c2ccnc(NC(=O)C3CC3)c2)n1 [Example 257]
500 to 1000 | ≤ 100 | ≤ 100 | 100 to 500 | CNC(=O)c1cc(-c2cc(-c3cc(NC(=O)c4ccnc(C(C)(C)C#N)c4)ccc3F)cc(C)n2)ccn1 [Example 259]
≤ 100 | ≤ 100 | ≤ 100 | ≤ 100 | Cc1cc(F)c(NC(=O)c2ccnc(C3(C#N)CC3)c2)cc1-c1ccnc(-c2ccnc(NC(=O)C3CC3)c2)n1 [Example 262]
1000 to 10000 | ≤ 100 | ≤ 100 | ≤ 100 | Cc1cc(F)c(NC(=O)c2cnnc(C3CC3)c2)cc1-c1ccnc(-c2ccnc(NC(=O)C3CC3)c2)n1 [Example 263]
≤ 100 | ≤ 100 | ≤ 100 | 100 to 500 | CNC(=O)c1cc(-c2cc(-c3cc(NC(=O)c4ccnc(C(C)(C)OC)c4)ccc3C)ccn2)ccn1 [Example 264]
≤ 100 | ≤ 100 | ≤ 100 | ≤ 100 | CNC(=O)c1cc(-c2cc(-c3cc(NC(=O)c4ccnc(C5(C#N)CC5)c4)ccc3C)ccn2)ccn1 [Example 265]
100 to 500 | ≤ 100 | ≤ 100 | 100 to 500 | CCNC(=O)c1cc(-c2cc(-c3cc(NC(=O)c4ccnc(C(C)(C)C#N)c4)ccc3C)ccn2)ccn1 [Example 266]
100 to 500 | ≤ 100 | ≤ 100 | ≤ 100 | Cc1ccc(NC(=O)c2ccnc(C(C)(C)C#N)c2)cc1-c1cccc(-c2cc(N)ncn2)c1 [Example 267]
100 to 500 | 100 to 500 | ≤ 100 | 100 to 500 | CNC(=O)c1cc(-c2ccnc(-c3cc(NC(=O)c4ccnc(C(C)(C)OC)c4)ccc3C)n2)ccn1 [Example 268]
≤ 100 | ≤ 100 | ≤ 100 | ≤ 100 | Cc1ncc(NC(=O)c2ccnc(C(C)C)c2)cc1-c1cccc(-c2ccnc(NC(=O)C3CC3)c2)n1 [Example 269]
